The values below come from patent publication US7695899B2, “Methods of identifying and using chemotherapeutic agents” (The Regents of the University of Colorado, a body corporate, priority 2003, dated 2010).

The assay deals with irradiated grp mutant larvae. In words: Survival screen of irradiated and non-irradiated grp mutant and wild-type larvae. The assay is classed as in vivo, Drosophila melanogaster. To be noted: colchicine 1.3 μM in cornmeal-agar food; 4,000 Rads of X-rays; cumulative results of three screens; FIG. 1. The procedure: To obtain correctly aged larvae, embryos are collected at Day 0 from wild-type and grp mutant heterozygous adults for approximately 4 hours in the late afternoon or early evening 4 days prior to experiment. The embryos are allowed to hatch into larvae and the larvae are allowed to develop. The grp mutant heterozygote adults carry a grp mutation on one chromosome and a wild-type grp gene on a balancer chromosome. The balancer chromosome also carries a Green Fluorescent Protein (GFP) transgene.
In the morning of Day 4, food is washed from larvae by using stacked sieves (VWR; USA Standard Testing Sieve: 850, 600, 425, 180 micrometer). […]
At Day 9, the total number of pupae formed are counted (this gives the percentage of larvae that survived into pupae). In the vials with progeny from grp heterozygous parents, the grp heterozygous pupae and the wild-type pupae are identified by virtue of their expression of GFP and are not counted. At Day 14, the number of empty pupae are counted (indicating the number of pupae that eclosed into adults).
Survival is expressed as the percentage of larvae that form pupae, and the percentage of pupae that eclose into adults. […]

As for `COc1cc2c(c(OC)c1OC)-c1ccc(OC)c(=O)cc1[C@@H](NC(C)=O)CC2` [colchicine], the “survival of irradiated grp mutant larvae (grp+R) relative to non-irradiated grp mutant larvae (grp-R), wild-type irradiated larvae (SEV+R) and wild-type non-irradiated larvae (SEV-R)” value is “selectively reduces the survival”.
